{"source": "patent US12097188B2", "about": "“Compositions and methods for the treatment of macular degeneration” (Aldeyra Therapeutics, Inc., priority 2009, dated 2024)", "key": {"visual cycle [1]": {"system": "visual cycle", "test": "Functional biological activity in the retina: visual cycle inhibition / dark adaptation rate by ERG", "settings": "for effect on normal function of the retina: mouse, in vivo", "description": "(§2) The protocol for measuring DA rates by ERG is based on the kinetics of functional visual recovery from photo-bleaching of visual pigment by brief exposure to extremely bright light.\n(§3) A retinoid useful for this purpose is 13-cis-retinoic acid (RA, also known as isotretinoin)."}, "A2E formation": {"system": "A2E formation", "test": "A2E formation in the abcr -/- mouse after repeated IP dosing", "format": "in vivo", "settings": "10 mg/kg IP, repeated daily for 56 days, p<0.01", "text": "(§1) The target tissue, for the biological activity of compounds which reversibly react with RAL, e.g. Compounds A, B and C, is the outer segment of retinal photoreceptor cells."}, "visual cycle [2]": {"system": "visual cycle", "settings": "mouse, in vivo", "description": "as §2, §3"}, "in vivo": {"test": "in vivo", "design": "species or system C57BL/6 mice", "settings": "ip, 10 mg/kg", "text": "as §1"}, "[3]": {"test": "Ocular levels of 14C-Compound A in the retina and RPE of rabbits (LSC)", "format": "in vivo, Dutch belted rabbits", "settings": "for Amount of 14C-compound A in retina and RPE at tmax: rabbit, single 40 μL TO eyedrop, mean of 6 eyes", "protocol": "Dutch belted rabbits were dosed TO with a single 40 μL eyedrop containing either 0.50%, 0.15% or 0.05% weight/volume ^14C-Compound A in 20%, 6% or 2% weight/volume, respectively, β-cyclodextrin sulfobutylether sodium salt in phosphate-buffered saline (Table 1). At different times after dosing the eyes of the rabbits were enucleated, dissected and the amount of ^14C-Compound A in the retina and RPE together was measured by LSC. Each value represents the mean value from 6 eyes."}}, "note": "Read-outs that look alike come from different tables or passages of the source.", "data": [{"smiles": "CC(C)(O)c1cc2nc(-c3ccccc3)oc2cc1N", "note": "[B]", "values": [{"measurement": "effect on normal function of the retina", "setting": "visual cycle [1]", "result": "do not alter the normal function of the retina"}]}, {"smiles": "CC(C)(O)c1cc2oc(-c3ccccc3)nc2cc1N", "note": "[C]", "values": [{"measurement": "effect on normal function of the retina", "setting": "visual cycle [1]", "result": "do not alter the normal function of the retina"}]}, {"smiles": "CC(C)(O)c1nc2ccc(Cl)cc2cc1N", "note": "[Compound A]", "values": [{"measurement": "reduction of A2E formation", "setting": "A2E formation", "result": 71, "unit": "%"}, {"measurement": "effect on normal function of the retina", "setting": "visual cycle [2]", "result": "do not alter the normal function of the retina"}, {"measurement": "effect on rate of dark adaptation (DA)", "setting": "visual cycle [2]", "result": "nor does it slow the rate of dark adaptation"}, {"measurement": "inhibition of the visual cycle", "setting": "visual cycle [2]", "result": "does not inhibit the visual cycle"}, {"measurement": "Cmax", "setting": "in vivo; C57BL/6, mouse", "result": 14400, "unit": "ng/g"}, {"measurement": "Tmax in the posterior eyecup", "setting": "in vivo; mouse", "result": "Thirty"}, {"measurement": "Amount of 14C-compound A in retina and RPE at tmax", "setting": "[3]; 0.05% w/v in 2% w/v βCSSA", "result": 23.1, "unit": "ng/g"}, {"measurement": "Amount of 14C-compound A in retina and RPE at tmax", "setting": "[3]; 0.15% w/v in 6% w/v βCSSA", "result": 47.0, "unit": "ng/g"}, {"measurement": "Amount of 14C-compound A in retina and RPE at tmax", "setting": "[3]; 0.50% w/v in 20% w/v βCSSA", "result": 131, "unit": "ng/g"}, {"measurement": "amounts found in rabbit retina/RPE", "setting": "[3]; within one hour of TO dosing", "result": "Significant amounts"}]}, {"smiles": "CC1=C(/C=C/C(C)=C/C=C/C(C)=C\\C(=O)O)C(C)(C)CCC1", "note": "[RA, 13-cis-retinoic acid, reference compound]", "values": [{"measurement": "visual cycle inhibition", "setting": "visual cycle [1]; mice, IP 20 mg/kg (FIG. 3)", "result": "show visual cycle inhibition"}, {"measurement": "inhibition of dark adaptation (DA)", "setting": "visual cycle [1]; mice, TO one or two 30 μL eyedrops, 0.2% w/v RA in 20% w/v β-cyclodextrin sulfobutylether sodium salt in PBS (FIG. 3)", "result": "dose-responsive inhibition of DA similar to that observed after IP dosing"}]}]}
